Assay results taken from patent publication US6156700A, “3-(1,2-Benzisothiazol- and isoxazol-5-yl)-2,4(1H,3H)-pyrimidinedione or thione and 3-(1,2-benzisothiazol- and isoxazol-5-yl)-4(3H)-pyrimidinone or thione herbicidal agents” (American Cyanmid Company, priority 1998, dated 2000).

Assays:
[1] = system: Sicklepod, Cassia obtusifolia; experiment: Postemergence herbicidal evaluation, CASOB; assay type: in vivo, L.; conditions: 0.2500 kg/ha
In short: (§1)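 Each compound, dispersed in a 1:1 acetone–water mixture bearing 0.5% TWEEN 20, was sprayed onto roughly two-week-old seedlings at about 0.0157–0.500 kg/ha. Visual 0–9 ratings against control were made 4–5 weeks post-treatment and averaged over repeat tests.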

[2] = system: Velvetleaf, Abutilon theophrasti; experiment: Preemergence herbicidal evaluation, ABUTH; assay type: in vivo, Medic.; conditions: 0.2500 kg/ha
In short: (§2)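 Preemergence spray, aqueous acetone solution, ~0.0156–0.500 kg/ha, applied to freshly seeded soil cups. Greenhouse, 4–5 wk. Visual 0–9 rating vs untreated control (stand, vigor, malformation, size, chlorosis, overall appearance).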

[3] = system: Velvetleaf, Abutilon theophrasti; experiment: Postemergence herbicidal evaluation, ABUTH; assay type: in vivo, Medic.; conditions: 0.2500 kg/ha
In short: as §1

MOOVA Monochoria = experiment: Preemergence weed control, flooded paddy (Table III); assay type: in vivo, Monochoria vaginalis; parameters: scale not given here
Method: (§3) Preemergence herbicidal activity under flooded paddy conditions is determined as follows: plant seeds or propagating organs are planted in the top 0.5 cm of silt loam soil in 32 oz. plastic containers with a diameter of 10.5 cm and no drainage holes. Water is added to these containers and maintained at 1.5 to 3 cm above the soil surface for the duration of the experiment. The test compounds are applied as aqueous/acetone mixtures 50/50 v/v pipetted directly into the flood water to give the equivalent of about 0.0313 to 0.500 kg/ha of active ingredient. The treated containers are placed on greenhouse benches and cared for in accordance with conventional greenhouse procedures. Three to four weeks after treatment, the test is terminated and each container is examined and herbicidal effect rated according to the rating system provided in Example 185. The compounds evaluated are reported by compound number given in Example 185.

[4] = system: Morningglory Spp., Ipomoea Spp.; experiment: Postemergence herbicidal evaluation, IPOSS; assay type: in vivo; conditions: 0.2500 kg/ha
Method: (§4) In the tests, seedling plants are grown in jiffy flats for about two weeks. The test compounds are dispersed in 50/50 acetone/water mixtures containing 0.5% TWEEN®20, a polyoxyethylene sorbitan monolaurate surfactant of Atlas Chemical Industries, in sufficient quantities to provide the equivalent of about 0.0157 kg to 0.500 kg per hectare of active compound when applied to the plants through a spray nozzle operating at 40 psi for a predetermined time. After spraying, the plants are placed on greenhouse benches and are cared for in accordance with conventional greenhouse procedures. From four to five weeks after treatment, the seedling plants are examined and rated according to the rating system set forth below. Where more than one test is involved for a given compound, the data are averaged.
(§5) Results of herbicide evaluation are expressed on a rating scale (0-9). The scale is based upon a visual observation of plant stand, vigor, malformation, size, chlorosis and overall plant appearance as compared with a control.

[5] = system: Rice, Tebonnet, Oryza sativa; experiment: Preemergence herbicidal evaluation, ORYSAT; assay type: in vivo, (L.) Tebonnet; conditions: 0.2500 kg/ha
In short: as §2

[6] = system: Foxtail, Green, Setaria viridis; experiment: Preemergence herbicidal evaluation, SETVI; assay type: in vivo, (L.) Beau; conditions: 0.2500 kg/ha
In short: as §2

[7] = system: Lambsquarters, Common, Chenopodium album; experiment: Preemergence herbicidal evaluation, CHEAL; assay type: in vivo, L.; conditions: 0.2500 kg/ha
Excerpt: as §5
(§6) The preemergence herbicidal activity of the test compounds of the present invention is exemplified by the following tests in which the seeds of a variety of monocotyledonous and dicotyledonous plants are separately mixed with potting soil and planted on top of approximately one inch of soil in separate pint cups. After planting, the cups are sprayed with the selected aqueous acetone solution containing test compound in sufficient quantity to provide the equivalent of about 0.0156 to 0.500 kg per hectare of test compound per cup. The treated cups are then placed on greenhouse benches, watered and cared for in accordance with conventional greenhouse procedures. From four to five weeks after treatment, the tests are terminated and each cup is examined and rated according to the rating system provided in Example 185.
(§7) The compounds evaluated are reported by compound number given in Example 185.

[8] = system: ECHORC Watergrass (Calif.); experiment: Preemergence weed control, flooded paddy (Table III); assay type: in vivo, Echinochloa oryzoides; parameters: scale not given here
Method: as §3

Soybean, Glycine max [9] = experiment: Preemergence herbicidal evaluation, GLXMA; assay type: in vivo, (L.) Merr.; conditions: 0.2500 kg/ha
Excerpt: as §5, §6, §7

[10] = system: Ragweed, Common, Ambrosia artemisifolia; experiment: Postemergence herbicidal evaluation, AMBEL; assay type: in vivo, L.; conditions: 0.2500 kg/ha
In short: as §1

[11] = system: Morningglory Spp., Ipomoea Spp.; experiment: Preemergence herbicidal evaluation, IPOSS; assay type: in vivo; conditions: 0.2500 kg/ha
Excerpt: as §5, §6, §7

[12] = system: Foxtail, Green, Setaria viridis; experiment: Postemergence herbicidal evaluation, SETVI; assay type: in vivo, (L.) Beau; conditions: 0.2500 kg/ha
In short: as §1

[13] = system: Lambsquarters, Common, Chenopodium album; experiment: Postemergence herbicidal evaluation, CHEAL; assay type: in vivo, L.; conditions: 0.2500 kg/ha
In short: as §1

[14] = system: Barnyardgrass, Echinochloa crus-galli; experiment: Preemergence herbicidal evaluation, ECHCG; assay type: in vivo, (L.) Beau; conditions: 0.2500 kg/ha
In short: as §2

Corn, Field, Zea mays [15] = experiment: Preemergence herbicidal evaluation, ZEAMX; assay type: in vivo, L.; conditions: 0.2500 kg/ha
In short: as §2

Galium, Galium aparine = experiment: Preemergence herbicidal evaluation, GALAP; assay type: in vivo; conditions: 0.2500 kg/ha
Excerpt: as §5, §6, §7

[16] = system: Sicklepod, Cassia obtusifolia; experiment: Preemergence herbicidal evaluation, CASOB; assay type: in vivo, L.; conditions: 0.2500 kg/ha
In short: as §2

[17] = system: SAGPY Arrowhead (Pygmaea); experiment: Preemergence weed control, flooded paddy (Table III); assay type: in vivo, Sagittaria pygmaea; parameters: scale not given here
Method: as §3

Corn, Field, Zea mays [18] = experiment: Postemergence herbicidal evaluation, ZEAMX; assay type: in vivo, L.; conditions: 0.2500 kg/ha
In short: as §1

Soybean, Glycine max [19] = experiment: Postemergence herbicidal evaluation, GLXMA; assay type: in vivo, (L.) Merr.; conditions: 0.2500 kg/ha
Method: as §4, §5

[20] = system: Soybean, Williams, Glycine max; experiment: Postemergence herbicidal evaluation, GLXMAW; assay type: in vivo, (L.) Merr. cv Williams; conditions: 0.2500 kg/ha
In short: as §1

Structure (SMILES)	herbicide rating (0-9) [1]	herbicide rating (0-9) [2]	herbicide rating (0-9) [3]	herbicidal effect rating (MOOVA Monochoria; 0.0313 kg/ha)	herbicidal effect rating (MOOVA Monochoria; 0.0625 kg/ha)	herbicidal effect rating (MOOVA Monochoria; 0.1250 kg/ha)	herbicidal effect rating (MOOVA Monochoria; 0.2500 kg/ha)	herbicidal effect rating (MOOVA Monochoria; 0.5000 kg/ha)	herbicide rating (0-9) [4]	herbicide rating (0-9) [5]	herbicide rating (0-9) [6]	herbicidal effect rating ([8]; 0.0313 kg/ha)	herbicidal effect rating ([8]; 0.0625 kg/ha)	herbicidal effect rating ([8]; 0.1250 kg/ha)	herbicidal effect rating ([8]; 0.2500 kg/ha)	herbicidal effect rating ([8]; 0.5000 kg/ha)	herbicide rating (0-9) [10]	herbicide rating (0-9) [11]	herbicide rating (0-9) [12]	herbicide rating (0-9) [13]	other results
Cn1c(C(F)(F)F)cc(=O)n(-c2ccc3snc(-c4ccccc4)c3c2)c1=O [Compound 4, 1-Methyl-3-(3-phenyl-1,2-benzisothiazol-5-yl)-6-(trifluoromethyl)-2,4(1H,3H)-pyrimidinedione]	9.0	9.0	9.0	9.0	9.0	9.0	9.0	9.0	9.0	7.0	9.0	9.0	9.0	9.0	9.0	9.0	9.0	9.0	9.0	9.0	herbicide rating (0-9) [7]: 9.0; herbicide rating (0-9) (Soybean, Glycine max [9]): 7.0; herbicide rating (0-9) [14]: 9.0; herbicide rating (0-9) (Corn, Field, Zea mays [15]): 7.0; herbicide rating (0-9) (Galium, Galium aparine): 9.0; herbicide rating (0-9) [16]: 9.0; herbicidal effect rating ([17]; 0.0313 kg/ha): 2.0; herbicidal effect rating ([17]; 0.0625 kg/ha): 2.0; herbicidal effect rating ([17]; 0.1250 kg/ha): 6.0; herbicidal effect rating ([17]; 0.2500 kg/ha): 9.0; herbicidal effect rating ([17]; 0.5000 kg/ha): 9.0; herbicide rating (0-9) (Corn, Field, Zea mays [18]): 3.0; herbicide rating (0-9) (Soybean, Glycine max [19]): 9.0
COC(=O)C(C)Oc1cc(C)c(C)cc1-c1nsc2ccc(-n3c(=O)cc(C(F)(F)F)n(C)c3=O)cc12 (stereo not drawn) [Compound 13, Methyl 2-{{6-{5-[3,6-dihydro-3-methyl-4-(trifluoromethyl)-2,6-dioxo-1(2H)-pyrimidinyl]-1,2-benzisothiazol-3-yl}-3,4-xylyl}oxy}propionate]	9.0	9.0	9.0	9.0	9.0	9.0	9.0	9.0	9.0	6.0	9.0	9.0	9.0	9.0	9.0	9.0	9.0	9.0	9.0	9.0	herbicide rating (0-9) [20]: 8.5; herbicide rating (0-9) [14]: 9.0; herbicide rating (0-9) (Corn, Field, Zea mays [15]): 4.0; herbicide rating (0-9) [16]: 9.0; herbicidal effect rating ([17]; 0.0313 kg/ha): 0.0; herbicidal effect rating ([17]; 0.0625 kg/ha): 2.0; herbicidal effect rating ([17]; 0.1250 kg/ha): 6.0; herbicidal effect rating ([17]; 0.2500 kg/ha): 8.0; herbicidal effect rating ([17]; 0.5000 kg/ha): 9.0; herbicide rating (0-9) (Corn, Field, Zea mays [18]): 9.0
